The numbers were not newly measured in patent US8920835B2, “Paliperidone double-layered osmotic pump controlled release tablet and preparation method thereof” (Shanghai Institute of Materia Medica, Chinese Academy of …, priority 2009, dated 2014), which cites them from elsewhere.

For series [1] the following is noted: in vivo.

Regarding `Cc1nc2n(c(=O)c1CCN1CCC(c3noc4cc(F)ccc34)CC1)CCCC2O` (stereo not drawn) [Paliperidone], the “plasma protein binding rate” value is 74%. Further, in series [1], the “apparent volume of distribution” value is on record as 487 L and the “half-life of the terminal elimination phase” value is recorded as “about 23 h”.
